Experimental data: PMC12226733, “Evolution of iGluR ligand specificity, polyamine regulation, and ion selectivity inferred from a placozoan epsilon receptor” (Communications Biology, 2025)
Several values for one entry are separate records, joined by “and”; a condition that tells them apart may be missing. Equal values may be shown once. Read-outs that look alike come from different tables or passages of the source.

System: GluE1αA D646A
Conditions: single recordings c1-c7, AVG c8
Source text: To further elucidate the nature of internal polyamine block in GluE1αA, we performed outside-out membrane patch clamp experiments in wildtype and mutant channels. […] Current-voltage (I-V) relationships were converted to conductance-voltage (G-V) plots and fit with a single permeant blocker model to estimate both the dissociation constant for Spm at 0 mV (Kd(0mV)) and the voltage dependency of block, as previously described[46],[47].
HEK-293T/17 cells (ATCC) were maintained in MEM supplemented with GlutaMAX and 10% fetal bovine serum (FBS) at 37 °C and 5% CO2. […] Transient transfections were carried out 48 h post-plating using the calcium phosphate precipitation method. After 6–8 hours, cells were washed twice with PBS and maintained in fresh medium. Cells transfected with mammalian GluA2 cDNA (plasmid vector described above) were returned to an incubator at 37 °C for 24–48 hours and cells transfected with Epsilon GluE1αA were incubated at 28 °C for 48–72 hours. In cells co-transfected with TARP-γ2, 30 μM NBQX was included in the medium to minimize AMPAR/auxiliary-induced cytotoxicity. All constructs were co-transfected with a plasmid encoding enhanced green fluorescent protein (eGFP) to identify transfected cells. Electrophysiology responses were recorded from outside-out patches excised from transfected cells. Recording pipettes were composed of borosilicate glass (3 to 6 megaohm, King Precision Glass) coated with dental wax to reduce electrical noise. All recordings were performed using Axopatch 200B amplifier (Molecular Devices, LLC). Current records were filtered at 5 or 10 kHz and sampled at 25–50 kHz. Series resistance (3 to 12 megaohms) was compensated by 95%. Recordings were performed at a range of holding potentials from −100 mV to 100 mV to study polyamine block. Data was acquired using pClamp9 software (Molecular Devices, LLC). All experiments were performed at room temperature. All chemicals were purchased from Sigma-Aldrich, unless otherwise indicated. External solution contained (in mM): 150 NaCl, 5 HEPES, 0.1 CaCl2, 0.1 MgCl, and […], pH 7.3–7.4. […] The osmotic pressure of all solutions was adjusted to 295 to 300 mOsm with sucrose. […] Stocks were thawed on the day of the experiment and used to prepared agonist-containing external solutions. Raw data for all electrophysiology experiments are provided in Supplementary Data 3. Current-voltage (I-V) relationships were fit using Origin 7 (OriginLab) using a ninth order polynomial function to estimate the reversal potential (Vrev).
Agonist-evoked membrane conductance (G) was calculated using the following equation: G=I/(V−Vrev) […]

For NCCCNCCCCNCCCN [spermine], the “Normalized current (Inorm)” value (20 mV) was 0.12 and 0.10 and 0.11, the “Normalized current (Inorm)” value (30 mV) was 0.18 and 0.16 and 0.19 and the “Normalized conductance (Gnorm)” value (-100 mV) was 1.00. The “Normalized current (Inorm)” value (-100 mV) was -1.00.
